Data reported in US20170182104A1, “COMPOSITION CONTAINING MASTERWORT EXTRACT” (AMOREPACIFIC CORPORATION, priority 2014, published 2017).

Legend:
Type in all cases: cell-based, human
endothelin 1 (EDN1) = test: Endothelin 1 ELISA assay of culture medium of melanocytes; conditions: melanocytes (KaMC) medium, 2 nM substance P; absorbance/total protein, control group = 100%
Description: When the density of the melanocytes on the 6-well plate reached about 80% (˜80% confluence), they were incubated for a total of 5 days with 2 nM of stress-inducing substance P (Bachem Fechemikalien, Bubendorf, Switzerland) or the masterwort (Peucedanum ostruthium) extract of Example 1 of different concentrations (0, 0.1, 1, 2 and 5 ppm). The cells not treated with substance P or the masterwort (Peucedanum ostruthium) extract of Example 1 were used as a control group.
The culture medium of the cells treated with the extract in (2) of Test Example 1 were recovered and the amount of endothelin 1 (EDN1) comprised in the medium was measured at 450 nm using the human total endothelin ELISA kit (MyBioSource, USA).
Endothelin content (%)=(Absorbance/Total protein)×100 Equation 1

EDN1 (endothelin 1) gene = test: Gene expression assay by real-time PCR: EDN1 gene in melanocytes; conditions: melanocytes (KaMC), 2 nM substance P, 5 days; relative to GAPDH, control group = 1
Description: (§1) Melanocytes (KaMC; KCTC 12015BP) deposited in the Korean Collection for Type Culture (KCTC) were cultured in M-254 medium (Gibco BRL, N.Y., USA) supplemented with Human Melanocyte Growth Supplement (HMGS; Gibco BRL, N.Y., USA) on a 6-well plate, while changing the medium every other day, in a 5% CO2 incubator at 37° C. until the cells occupied 95% of the plate area (95% confluence). […] The cells not treated with substance P or the masterwort (Peucedanum ostruthium) extract of Example 1 were used as a control group. After removing the medium form the melanocytes cultured on the 6-well plate, the cells were washed 2 times with cold phosphate-buffered saline (PBS) and the remaining water was completely removed. […] 1 μL of the RNA was quantified using Synergy II (Biotek, USA). […] After adding 10 μL of Taqman Gene Expression Master Mix (Life Technologies, USA) and 1 μL of Assays-on-DemandTM (Life Technologies, USA) of NK1 R (ACCESSION: NM_001058) and EDN1 (ACCESSION: NM_001168319) genes to 9 μL of the diluted cDNA, the expression of the genes was analyzed by relative quantification using 7500 Fast Real-Time PCR (Life Technologies, USA) with glyceraldehyde 3-phosphate dehydrogenase (GAPDH, ACCESSION: NM001256799) as a control gene. […]

[1] = test system: NK1R (neurokinin 1 receptor) gene; test: Gene expression assay by real-time PCR: NK1R gene in melanocytes; conditions: melanocytes (KaMC), 2 nM substance P, 5 days; relative to GAPDH, control group = 1
Description: as §1

expression of the NK1R gene [1]: 4.2
SMILES: CSCC[C@H](NC(=O)[C@H](CC(C)C)NC(=O)CNC(=O)[C@H](Cc1ccccc1)NC(=O)[C@H](Cc1ccccc1)NC(=O)[C@H](CCC(N)=O)NC(=O)[C@H](CCC(N)=O)NC(=O)[C@@H]1CCCN1C(=O)[C@H](CCCCN)NC(=O)[C@@H]1CCCN1C(=O)[C@@H](N)CCCN=C(N)N)C(N)=O [substance P]
content of endothelin 1 (endothelin 1 (EDN1)): 124% | expression of the EDN1 gene (EDN1 (endothelin 1) gene): 3.6
